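Results reflect a 48-hour exposure of cells in 96-well plates to compound at five concentrations. The concentration for 50% growth inhibition is given as GI50.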 Calls of active or inactive are those of the source. Cut-off read from the data, not from the text of the source: active = GI50 up to about 1.1 µM and inactive = higher.
Columns and labels:
Experiment in all cases: growth of human tumour cells (NCI), 48 h
Hs-578T = test system: Hs-578T
BT-549 = test system: BT-549
M14 = test system: M14
NCI-H23 = test system: NCI-H23
K562 = test system: K562
ACHN = test system: ACHN
NCI-H460 = test system: NCI-H460
IGROV-1 = test system: IGROV-1
MCF7 = test system: MCF7
HCC 2998 = test system: HCC 2998
U-251 = test system: U-251
HL-60 = test system: HL-60
UACC-62 = test system: UACC-62
SR = test system: SR
OVCAR-4 = test system: OVCAR-4
SK-MEL-5 = test system: SK-MEL-5
SNB-19 = test system: SNB-19
RPMI-8226 = test system: RPMI-8226
T47D = test system: T47D
RXF 393 = test system: RXF 393
SW-620 = test system: SW-620
DU-145 = test system: DU-145
SF-295 = test system: SF-295
A498 = test system: A498
HCT-15 = test system: HCT-15
PC-3 = test system: PC-3
A549 = test system: A549
MDA-MB-231 = test system: MDA-MB-231
SK-MEL-28 = test system: SK-MEL-28
HCT-116 = test system: HCT-116
MDA-N = test system: MDA-N
SF-268 = test system: SF-268
KM12 = test system: KM12
SNB-75 = test system: SNB-75
EKVX = test system: EKVX
UO-31 = test system: UO-31
OVCAR-5 = test system: OVCAR-5
CCRF-CEM = test system: CCRF-CEM
CAKI-1 = test system: CAKI-1
MDA-MB-435 = test system: MDA-MB-435
LOX IMVI = test system: LOX IMVI
NCI-H226 = test system: NCI-H226
NCI-H522 = test system: NCI-H522
SF-539 = test system: SF-539
HOP-92 = test system: HOP-92
HOP-62 = test system: HOP-62
NCI/ADR-RES = test system: NCI/ADR-RES
HT-29 = test system: HT-29
MOLT-4 = test system: MOLT-4
UACC-257 = test system: UACC-257
COLO 205 = test system: COLO 205
SK-OV-3 = test system: SK-OV-3
SN12C = test system: SN12C
TK-10 = test system: TK-10
OVCAR-8 = test system: OVCAR-8
786-0 = test system: 786-0
OVCAR-3 = test system: OVCAR-3
SK-MEL-2 = test system: SK-MEL-2

Measured: GI50

COC(=O)C(CCC1CC(OC)N(C(=O)OCc2ccccc2)C1)/N=C/c1ccccc1 (stereo not drawn)
> 100 µM: HCT-15
inactive: Hs-578T > 100 µM | BT-549 > 100 µM | M14 54.7 µM | NCI-H23 76 µM | K562 45.2 µM | ACHN > 100 µM | NCI-H460 78.3 µM | IGROV-1 87.9 µM | MCF7 60 µM | HCC 2998 31.6 µM | U-251 > 100 µM | HL-60 47.8 µM | UACC-62 84.1 µM | SR 30.5 µM | OVCAR-4 62.1 µM | SK-MEL-5 29.2 µM | SNB-19 > 100 µM | RPMI-8226 27.6 µM | T47D 40.5 µM | RXF 393 > 100 µM | SW-620 > 100 µM | DU-145 > 100 µM | SF-295 > 100 µM | A498 > 100 µM | PC-3 45.1 µM | A549 83 µM | MDA-MB-231 47 µM | SK-MEL-28 > 100 µM | HCT-116 55.3 µM | MDA-N 48 µM | SF-268 > 100 µM | KM12 94.8 µM | SNB-75 > 100 µM | EKVX 55.2 µM | UO-31 91.6 µM | OVCAR-5 > 100 µM | CCRF-CEM 41.9 µM | CAKI-1 > 100 µM | MDA-MB-435 53.8 µM | LOX IMVI > 100 µM | NCI-H226 > 100 µM | NCI-H522 30.6 µM | SF-539 > 100 µM | HOP-92 59.4 µM | HOP-62 > 100 µM | NCI/ADR-RES > 100 µM | HT-29 60.5 µM | MOLT-4 30.1 µM | UACC-257 31.2 µM | COLO 205 29.3 µM | SK-OV-3 > 100 µM | SN12C > 100 µM | TK-10 98.6 µM | OVCAR-8 96.2 µM | 786-0 > 100 µM | OVCAR-3 36.1 µM | SK-MEL-2 26.1 µM
